Test results taken from US12653808B2, “Compounds for treating multiple myeloma” (Purdue Pharma L.P., priority 2018, dated 2026).
“And” between values parts separate entries of the source, which are not always exact repeats. Identical values can stand only once.

What was measured:
[1] = system: patients with relapsed/refractory hematologic malignancies; assay: Cardiac safety: electrocardiograms and cardiac disorders; assay type: in vivo, human
From the text: (§1) Other safety assessments included physical examinations, Eastern Cooperative Oncology Group (ECOG) performance status determinations, electrocardiograms (ECGs), pregnancy testing for women of childbearing potential, documentation of treatment-emergent adverse events (TEAEs), clinical laboratory evaluations including haematology, blood chemistry and urinalysis, vital signs, and documentation of concomitant medication usage.

multiple myeloma [2] = conditions: López-Iglesias et al, J Hematol Oncol 2017, 10, 127; cited from earlier work
[3] = PK assessment: plasma concentrations of tinostamustine and metabolites M2 and M8, cycle 1 day one; assay type: in vivo, human
Description: Plasma samples were collected to determine the concentrations of tinostamustine and its metabolites (labelled M2 and M8) by a method fully validated according to the relevant guidelines. The PK profiles of tinostamustine in plasma were assessed in each patient in the escalation stage of the study, in cycle 1 only.
Patients of all cohorts and over all dose levels were sampled according to the following schedule: 0.5 hours prior to dose administration, and at 15, 30 and 45 minutes and 1, 1.25, 1.50, 2, 3, 8, 24, 48 and 72 hours from the start of tinostamustine infusion. Plasma samples were collected according to the Laboratory Manual for the determination of tinostamustine and metabolites M2 and M8 concentrations using a method fully validated according to the relevant guidelines.

[4] = system: relapsed/refractory hematologic malignancies; assay: Tumour assessment: response to treatment, all HM; assay type: in vivo, human; conditions: all 46 patients
From the text: (§2) Response to treatment included evaluation of overall response rate (patients with a CR plus patients with a PR), clinical benefit (CB) rate (patients with CR plus patients with PR plus patients with stable disease (SD)), progression free survival, and overall survival according to the relevant response criteria.

[5] = system: patients with relapsed/refractory hematologic malignancies; assay: Biochemistry: clinical chemistry abnormalities and TEAEs; assay type: in vivo, human
From the text: as §1

multiple myeloma [6] = assay: Tumour assessment: response to treatment, patients with multiple myeloma; assay type: in vivo, human; conditions: 19 patients with MM
From the text: as §2

[7] = system: patients with relapsed/refractory hematologic malignancies; assay: Phase 1 dose escalation trial: safety, treatment-emergent adverse events, DLT/MTD (NCI CTCAE v4.03); assay type: in vivo, human; conditions: for recommended starting dose, relapse refractory multiple myeloma: 60 minutes infusion, day 1 and day 15 of 28-day cycle
Description: A phase 1 trial was carried out including a dose escalation study to investigate the safety, pharmacokinetic (PK) profiles and efficacy of tinostamustine (EDO-S101) in relapsed/refractory hematologic malignancies.
The patient had relapsed/refractory hematologic malignancies for which there are no available therapies.
The assessment of dose-limiting toxicities (DLTs) was based on cycle 1 events alone. Toxicities were assessed regarding type and severity using the National Cancer Institute (NCI) Common Terminology Criteria for Adverse Events (CTCAE) version 4.03, June 2010. Toxicity data were collected for all patients throughout their time on study. Infusion site reactions were assessed using the Phlebitis Scale developed by the Infusion Nurses Society (2011).
DLTs, which were at least possibly related to study drug, were defined as: • Any Grade 3 or 4 non-hematologic toxicity (excluding alopecia and easily correctable electrolyte abnormalities); • Nausea, vomiting or diarrhoea that persists beyond 10 days despite aggressive symptomatic treatment; • Grade 4 neutropenia or thrombocytopenia lasting for 7 days or more; • Any grade 2 or more toxicity, but persist for over 3 weeks; and • Any toxicity resulting in a delay of the next dose administration (cycle 2 day 1≥14).
To ensure patients' safety, the stopping rules were implemented to the dose escalation stage of the study.
as §1
If there is no DLT observed in any of these subjects, the trial proceeds to enroll additional subjects into the next higher dose cohort. If one subject develops a DLT at a specific dose, an additional three subjects are enrolled into that same dose cohort.

[8] = Compartmental population PK analysis of tinostamustine; assay type: in vivo, human; conditions: dose range 20 to 120 mg/m^2, infusion times 30 to 60 minutes
Description: A compartmental population PK analysis of tinostamustine was conducted to characterize its concentration-time profiles and its dependency on patient factors. For the analysis, the 24 hours plasma concentrations of tinostamustine at day one from 36 patients was used from whom the data was available. The concentration-time profiles were best described with a two-compartmental model with first order clearance from the central compartment.

[9] = system: lymphoma (Hodgkin and non-Hodgkin); assay: Tumour assessment: response to treatment, patients with lymphoma; assay type: in vivo, human; conditions: 27 patients with lymphoma
From the text: as §2

[10] = all cohorts administered over 30 or 45 minutes
[11] = doses of 20 to 80 mg/m^2, 60 min cohorts
[12] = doses of 100 or 120 mg/m^2, 60 min cohorts

Cn1c(CCCCCCC(=O)NO)nc2cc(N(CCCl)CCCl)ccc21 [tinostamustine]
treatment-emergent ECG abnormality indicated to be clinically significant ([1]; all patients): No patient | treatment-emergent QTcF interval >500 msec ([1]; all patients): One patient | prolonged QTcF interval ([1]; one subject, MM 80/45 cohort, discontinuation visit three weeks after only dose, screening QTcF 423 msec): 677 ms | cardiac disorder considered study drug-related (grade 1 palpitations) ([1]; overall): 2% | activity in in vitro and in vivo models against multiple myeloma (multiple myeloma [2]): potent activity | Cmax Mean (SD) ([3]; dose 60 mg/m^2, infusion time 30 minutes): 1724 (1416) ng/mL | AUC Mean (SD) ([3]; dose 80 mg/m^2, infusion time 60 minutes): 902 (653) h · ng/mL | AUC Mean (SD) ([3]; dose 120 mg/m^2, infusion time 60 minutes): 1638 (578) h · ng/mL | best response PD [4]: 41% | C-reactive protein increased TEAE ([5]; all patients): 4% | blood creatinine increased TEAE ([5]; all patients): 9% | blood potassium decreased/hypokalemia TEAE ([5]; all patients): 11% | grade 3 hyperuricemia TEAE ([5]; considered unrelated to study drug): 2% | treatment-emergent shift to grade 3 aspartate aminotransferase increased and grade 3 hypoalbuminemia (each) ([5]; patients with normal or grade 1 or 2 values at baseline): 2% | best response PD (multiple myeloma [6]): 47% | patients with Grade 3 and 4 thrombocytopenia in C2 and C3 leading to withdrawal ([7]; 100 mg/m^2 over 60 minutes): three patients | DLT ([7]; 120 mg/m^2, lymphoma cohort): Thrombocytopenia | serious thrombocytopenia (grade 3), also led to study discontinuation ([7]; HM120/60 cohort patient, of all patients): 2% | TEAE with outcome of death ([7]; Patients (N = 46), number (percent)): 0 (0) | leukopenia, incidence ([7]; administered over 30 or 45 minutes): 16% | leukopenia, incidence ([7]; administered over 60 minutes): 27% | thrombocytopenia, incidence ([7]; administered over 60 minutes): 58% | SAE dyspnea, hypersensitivity, osteomyelitis, pleural effusion, pneumonia, and thrombocytopenia (each) ([7]; all 46 patients): 2% | SAE febrile neutropenia and sepsis (each) ([7]; all 46 patients): 2% | all other TEAEs, incidence ([7]; all 46 patients): < 20% | discontinuation because of adverse events (AE) ([7]; all 46 patients): 29% | grade 3/4 anemia, incidence ([7]; all 46 patients): 22% | grade 3/4 leukopenia/WBC decreased, incidence ([7]; all 46 patients): 15% and 16% | grade 3/4 lymphopenia, incidence ([7]; all 46 patients): 8.6% | grade 3/4 neutropenia/neutrophil count decreased, incidence ([7]; all 46 patients): 29% | grade 3/4 thrombocytopenia, incidence ([7]; all 46 patients): 39% and 40% | nausea, incidence ([7]; all 46 patients): 29% | other TEAEs leading to study drug discontinuation (anaphylactic reaction, febrile neutropenia, hypersensitivity, pleural effusion, pruritus; each) ([7]; all 46 patients): 2% | patients with at least one TEAE considered study drug-related ([7]; all 46 patients): 38 patients | anaemia, incidence ([7]; all 46 patients, any grade): 39% | leukopenia/WBC decreased, incidence ([7]; all 46 patients, any grade): 21% and 22% | neutropenia/neutrophil count decreased, incidence ([7]; all 46 patients, any grade): 29% and 28% | thrombocytopenia/platelet count decreased, incidence ([7]; all 46 patients, any grade): 52% | anaemia, incidence [7, 10]: 37% | thrombocytopenia, incidence [7, 10]: 47% | recommended starting dose, relapse refractory multiple myeloma ([7]; baseline platelet count 100×10^9/L): 50 mg/m^2 | recommended starting dose, relapse refractory multiple myeloma ([7]; baseline platelet count >100×10^9/L): 60 mg/m^2 | grade 3 or 4 anaemia, incidence ([7]; doses of 20 to 80 mg/m^2): 8% | anaemia, incidence [7, 11]: 25% | grade 3/4 thrombocytopenia, incidence [7, 11]: 8% | leukopenia, incidence [7, 11]: 17% | neutropenia, incidence [7, 11]: 25% | grade 3 or 4 anaemia, incidence ([7]; doses of 100 or 120 mg/m^2): 36% | anaemia, incidence [7, 12]: 64% | grade 3/4 thrombocytopenia, incidence [7, 12]: 71% | leukopenia, incidence [7, 12]: 36% | neutropenia, incidence [7, 12]: 50% | patients who experienced DLTs ([7]; lymphoma cohort, 120 mg/m^2 over 1 hour): Two out of six | neutropenia, incidence ([7]; shorter infusion times): 16% | dose linearity of PK [8]: dose-linear | best response PD [9]: 37%
